Laboratory results as given in US20260116889A1, “MACROCYCLIC PYRIMIDINE DERIVATIVE, METHOD FOR PREPARING SAME, AND PHARMACEUTICAL COMPOSITION FOR PREVENTION OR TREATMENT OF NEURODEGENERATIVE DISEASE CONTAINING SAME AS ACTIVE INGREDIENT” (WHAN IN PHARMACEUTICAL CO., LTD., priority 2021, published 2026).

Tests used:
[1] = molecular target: T1, wild type LRRK2 (leucine-rich repeat kinase 2) (Homo sapiens, UniProt Q5S007); test: HotSpot radiometric kinase assay (Reaction Biology), LRRK2 wild type inhibitory activity; assay type: biochemical; conditions: 10 μM ATP, 25° C., 120 min
T1 construct: purchased Reaction Biology Corporation
T1 sequence (Q5S007 whole entry): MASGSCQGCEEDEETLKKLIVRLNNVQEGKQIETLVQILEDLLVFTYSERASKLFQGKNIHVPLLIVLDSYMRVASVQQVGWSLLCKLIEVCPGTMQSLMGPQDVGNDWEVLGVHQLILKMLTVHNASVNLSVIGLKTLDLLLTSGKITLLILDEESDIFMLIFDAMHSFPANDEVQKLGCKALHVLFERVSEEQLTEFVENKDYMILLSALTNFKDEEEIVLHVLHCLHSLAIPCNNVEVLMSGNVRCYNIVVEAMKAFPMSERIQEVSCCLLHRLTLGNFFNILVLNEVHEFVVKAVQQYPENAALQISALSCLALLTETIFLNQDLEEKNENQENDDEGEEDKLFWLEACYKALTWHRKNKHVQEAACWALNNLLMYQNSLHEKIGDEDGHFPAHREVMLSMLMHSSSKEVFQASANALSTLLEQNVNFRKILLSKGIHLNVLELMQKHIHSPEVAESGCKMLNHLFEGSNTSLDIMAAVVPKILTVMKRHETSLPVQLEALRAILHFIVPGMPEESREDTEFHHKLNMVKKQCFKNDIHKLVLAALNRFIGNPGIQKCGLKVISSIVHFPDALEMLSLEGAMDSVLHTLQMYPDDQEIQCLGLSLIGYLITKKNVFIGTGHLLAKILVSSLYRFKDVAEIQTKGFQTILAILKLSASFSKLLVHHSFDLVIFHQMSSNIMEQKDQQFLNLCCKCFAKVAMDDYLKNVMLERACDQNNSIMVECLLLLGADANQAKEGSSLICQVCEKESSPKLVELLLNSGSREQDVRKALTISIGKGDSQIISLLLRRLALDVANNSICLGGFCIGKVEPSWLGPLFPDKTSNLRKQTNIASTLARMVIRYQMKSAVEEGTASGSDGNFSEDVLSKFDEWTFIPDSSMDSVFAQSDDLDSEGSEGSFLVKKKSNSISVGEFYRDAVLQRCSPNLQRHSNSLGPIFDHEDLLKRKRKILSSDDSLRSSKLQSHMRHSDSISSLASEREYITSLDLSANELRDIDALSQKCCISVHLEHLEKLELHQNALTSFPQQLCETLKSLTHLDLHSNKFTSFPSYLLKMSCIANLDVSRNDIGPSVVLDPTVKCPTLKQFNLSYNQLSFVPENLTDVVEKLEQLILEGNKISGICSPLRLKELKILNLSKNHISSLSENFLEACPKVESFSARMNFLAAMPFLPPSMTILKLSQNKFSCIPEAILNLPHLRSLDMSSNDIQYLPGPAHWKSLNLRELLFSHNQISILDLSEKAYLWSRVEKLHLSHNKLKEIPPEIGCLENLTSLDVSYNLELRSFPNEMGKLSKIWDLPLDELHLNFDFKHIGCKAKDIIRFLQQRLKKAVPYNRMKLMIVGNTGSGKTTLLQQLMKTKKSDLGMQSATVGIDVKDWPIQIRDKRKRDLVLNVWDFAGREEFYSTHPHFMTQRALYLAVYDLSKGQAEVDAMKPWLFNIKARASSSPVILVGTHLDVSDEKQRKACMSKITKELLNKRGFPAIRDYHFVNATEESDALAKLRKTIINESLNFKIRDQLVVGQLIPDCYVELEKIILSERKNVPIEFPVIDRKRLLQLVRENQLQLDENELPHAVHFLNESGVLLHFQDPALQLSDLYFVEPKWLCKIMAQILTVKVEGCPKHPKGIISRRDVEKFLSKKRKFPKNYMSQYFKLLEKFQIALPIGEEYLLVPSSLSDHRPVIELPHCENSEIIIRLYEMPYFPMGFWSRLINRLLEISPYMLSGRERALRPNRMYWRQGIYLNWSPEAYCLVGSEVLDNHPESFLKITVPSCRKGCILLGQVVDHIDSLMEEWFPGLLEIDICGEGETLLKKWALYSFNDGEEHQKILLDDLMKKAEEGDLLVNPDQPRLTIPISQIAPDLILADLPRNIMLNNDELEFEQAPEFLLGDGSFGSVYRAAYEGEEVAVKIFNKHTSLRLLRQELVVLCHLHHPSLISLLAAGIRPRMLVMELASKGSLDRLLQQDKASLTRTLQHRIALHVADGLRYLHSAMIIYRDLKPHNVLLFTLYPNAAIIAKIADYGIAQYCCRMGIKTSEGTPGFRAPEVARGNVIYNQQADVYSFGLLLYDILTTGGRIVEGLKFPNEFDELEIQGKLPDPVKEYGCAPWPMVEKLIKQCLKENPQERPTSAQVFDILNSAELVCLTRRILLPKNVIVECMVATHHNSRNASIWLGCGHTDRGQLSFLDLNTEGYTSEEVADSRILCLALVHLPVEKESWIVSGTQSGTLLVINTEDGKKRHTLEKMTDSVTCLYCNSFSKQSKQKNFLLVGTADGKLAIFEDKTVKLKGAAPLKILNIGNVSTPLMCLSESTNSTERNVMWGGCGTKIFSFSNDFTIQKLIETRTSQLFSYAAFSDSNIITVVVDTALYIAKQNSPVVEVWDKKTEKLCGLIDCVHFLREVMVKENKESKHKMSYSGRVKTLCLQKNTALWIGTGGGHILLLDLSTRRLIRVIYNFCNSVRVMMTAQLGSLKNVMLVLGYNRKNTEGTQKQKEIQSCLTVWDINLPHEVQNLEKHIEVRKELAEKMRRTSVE
Procedure: (§1) The experimental method was as follows.
(§2) Specific kinase/substrate pairs were prepared in reaction buffer (20 mM Hepes pH 7.5, 10 mM MgCl2, 1 mM EGTA, 0.02% Brij35, 0.02 mg/ml BSA, 0.1 mM Na3VO4, 2 mM DTT, 1% DMSO) along with the required cofactors. The compounds were transferred to the reaction, and after 20 min, a mixture of ATP (Sigma) and ^33P ATP (PerkinElmer) was added to a final concentration of 10 μM. The reaction was carried out at 25° C. for 120 min and then dropped onto P81 ion exchange filter paper (Whatman). […] IC50 values were obtained using Prism (GraphPad Software).

[2] = molecular target: T2, G2019S mutant of LRRK2 (leucine-rich repeat kinase 2) (Homo sapiens, UniProt Q5S007, G2019S); test: HotSpot radiometric kinase assay (Reaction Biology), LRRK2 G2019S mutant inhibitory activity; assay type: biochemical; conditions: 10 μM ATP, 25° C., 120 min
T2 construct: purchased Reaction Biology Corporation
T2 sequence (Q5S007 whole entry G2019S): as the sequence (Q5S007 whole entry) above, with G2019S counted along it
Procedure: as §1, §2

[3] = Blood-brain barrier (BBB) permeability after oral administration, plasma and brain by LC-MS/MS; assay type: in vivo; conditions: 5 mg/kg oral administration; plasma and brain tissue at 1 and 3 hours
Procedure: To evaluate the blood-brain barrier permeability, the following experiment was conducted.
The test substance was prepared at a dosage of 5 mg/kg, and after oral administration, the animals were sacrificed at 1 and 3 hours, and blood was collected from the heart and centrifuged to prepare plasma samples. To remove the remaining blood in the body, the brain was removed after cardiac perfusion using 20 ml of saline containing 10 U/ml heparin. The brain tissue was homogenized by adding 3 times the weight of PBS buffer. LC-MS/MS (Agilent, Santa Clara, CA, USA) was used for quantitative analysis of the prepared plasma and brain tissue. The separation of substances in LC used a mobile phase consisting of 20% water with 80% acetonitrile and 0.1% formic acid. The total run time per substance was 3 minutes, and the flow rate was 0.3 ml/min.

IC50 [1] [nM] | IC50 [2] [nM] | Kp [3] | Structure (SMILES)
15.8 | 16 | 0.09 | COc1cc2cc(c1)C(=O)N(C)CCNc1nc(ncc1Cl)N2 [Example 10, 1^5-chloro-3^5-methoxy-5-methyl-2,5,8-triaza-1 (2,4)-pyrimidina-3 (1,3)-benzenacyclooctaphane-4-one;2,2,2-trifluoroacetate]
6.62 | 7.12 | 0.12 | COc1ccc2cc1Nc1ncc(Cl)c(n1)NCCCCN(C)C2=O [Example 16, 1^5-chloro-3^6-methoxy-5-methyl-2,5,10-triaza-1 (2,4)-pyrimidina-3 (1,3)-benzenacyclodecarphane-4-one;2,2,2-trifluoroacetate]
2.89 | 0.471 | 0.51 | COc1cc2cc(c1)C(=O)N(C)CCCN(C)c1nc(ncc1C(F)(F)F)N2 [Example 32, 35-methoxy-5,9-dimethyl-1^5-(trifluoromethyl)-2,5,9-triaza-1 (2,4)-pyrimidina-3 (1,3)-benzenacyclononapane-4-one;2,2,2-trifluoroacetate]
